Where two headings read alike, the source gives them in different places.
Target: MLK3 (Homo sapiens (Human), UniProt Q16584)
Assay: Radiometric Filter Plate MLK3 Assay
Assay type: biochemical
Settings: read-out: MK3 IC50
Procedure: Radiometric Filter Plate MLK3 Assay
After a twenty minute incubation, the reactions were washed through filter plates and read on a scintillation counter. Results are shown in Table 4 below, in which +++ indicates ≦0.1 μM, ++ indicates >0.1 μM and ≦1 μM, and + indicates >1 μM.

[1] = 200 ng (130 nM) MLK3, 1 μM inactive MKK7b, 2 μM cold ATP (Km), 33P ATP, twenty minute incubation

Sequence of MLK3 (Q16584 whole entry): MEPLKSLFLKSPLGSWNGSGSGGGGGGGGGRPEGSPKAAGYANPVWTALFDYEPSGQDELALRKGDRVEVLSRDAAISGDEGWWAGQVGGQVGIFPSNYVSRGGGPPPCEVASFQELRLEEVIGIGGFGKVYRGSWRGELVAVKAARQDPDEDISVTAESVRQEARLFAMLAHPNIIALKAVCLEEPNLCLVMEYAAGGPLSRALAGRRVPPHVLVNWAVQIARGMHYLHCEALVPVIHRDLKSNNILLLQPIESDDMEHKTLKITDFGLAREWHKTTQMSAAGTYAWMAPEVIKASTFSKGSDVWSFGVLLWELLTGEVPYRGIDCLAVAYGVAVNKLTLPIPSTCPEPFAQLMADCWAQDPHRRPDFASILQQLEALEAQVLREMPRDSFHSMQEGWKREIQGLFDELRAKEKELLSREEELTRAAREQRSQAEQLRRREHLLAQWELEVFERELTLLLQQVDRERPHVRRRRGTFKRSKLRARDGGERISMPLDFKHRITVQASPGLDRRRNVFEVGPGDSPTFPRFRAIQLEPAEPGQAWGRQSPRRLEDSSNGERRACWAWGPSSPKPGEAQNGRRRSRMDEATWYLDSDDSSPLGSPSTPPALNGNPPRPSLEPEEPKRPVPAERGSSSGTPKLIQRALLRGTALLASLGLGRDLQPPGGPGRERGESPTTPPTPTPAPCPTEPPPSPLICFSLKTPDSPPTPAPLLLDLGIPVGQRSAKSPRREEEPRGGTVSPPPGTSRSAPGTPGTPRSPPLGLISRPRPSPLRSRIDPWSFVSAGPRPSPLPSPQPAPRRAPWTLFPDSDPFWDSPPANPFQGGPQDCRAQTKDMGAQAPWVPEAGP

c1ccc(-c2cnc3[nH]cc(-c4ccc5[nH]ccc5c4)c3c2)cc1 [Example 14, 3-(1H-indol-5-yl)-5-phenyl-1H-pyrrolo[2,3-b]pyridine]
IC50: 100 to 1000 nM

COc1cc(-c2cnc3c(c2)C(CC2CC2)C(=O)N3)cc(OC)c1OC (stereo not shown) [Example 123, 3-(cyclopropylmethyl)-5-(3,4,5-trimethoxyphenyl)-1H-pyrrolo[2,3-b]pyridin-2(3H)-one]
IC50 [1]: 100 to 1000 nM

COc1cc(-c2cnc3c(c2)C(Cc2ccccc2)C(=O)N3)cc(OC)c1OC (stereo not shown) [Example 137, 3-benzyl-5-(3,4,5-trimethoxy-phenyl)-1,3-dihydro-pyrrolo[2,3-b]pyridin-2-one]
IC50 [1]: > 1000 nM

O=c1[nH]c2ncc(-c3ccc(N4CCOCC4)cc3)nc2n1-c1ccc2[nH]cnc2c1 [Example 104, 1-(1H-benzo[d]imidazol-5-yl)-6-(4-morpholinophenyl)-1H-imidazo[4,5-b]pyrazin-2(3H)-one]
IC50: 100 to 1000 nM

COc1ccc(-c2cnc3[nH]c(=O)n(-c4ccc5[nH]cnc5c4)c3n2)cc1OC [Example 103, 1-(1H-benzo[d]imidazol-5-yl)-6-(3,4-dimethoxyphenyl)-1H-imidazo[4,5-b]pyrazin-2(3H)-one]
IC50: 100 to 1000 nM

COc1cc(-c2cnc3[nH]cc(-c4ccc(F)cc4)c3c2)cc(OC)c1OC [Example 166, 3-(4-fluoro-phenyl)-5-(3,4,5-trimethoxy-phenyl)-1H-pyrrolo[2,3-b]pyridine]
IC50: 100 to 1000 nM

COc1ccc(-c2cnc3[nH]c(=O)n(-c4ccc(O)cc4)c3n2)cc1OC [Example 115, 6-(3,4-dimethoxyphenyl)-1-(4-hydroxyphenyl)-1H-imidazo[4,5-b]pyrazin-2(3H)-one]
IC50: 100 to 1000 nM

COc1cc(-c2nc3c(nc2Cl)[nH]c(=O)n3CC2CC2)cc(OC)c1OC [Example 119, 5-chloro-1-(cyclopropylmethyl)-6-(3,4,5-trimethoxyphenyl)-1H-imidazo[4,5-b]pyrazin-2(3H)-one]
IC50 [1]: > 1000 nM

O=c1[nH]c2ncc(-c3ccncc3)nc2n1-c1ccc2[nH]ncc2c1 [Example 88, 1-(1H-indazol-5-yl)-6-(pyridin-4-yl)-1H-imidazo[4,5-b]pyrazin-2(3H)-one]
IC50 [1]: > 1000 nM

CNC(=O)c1ccc(-c2c[nH]c3ncc(-c4ccc(CN5CCN(C)CC5)cc4)cc23)cc1 [Example 165, N-methyl-4-{5-[4-(4-methyl-piperazin-1-ylmethyl)-phenyl]-1H-pyrrolo[2,3-b]pyridin-3-yl}-benzamide]
IC50 [1]: < 100 nM

COc1cc(-c2cnc3ncn(-c4ccc5[nH]ccc5c4)c3n2)cc(OC)c1OC [Example 126, 1-(1H-indol-5-yl)-6-(3,4,5-trimethoxyphenyl)-1H-imidazo[4,5-b]pyrazine]
IC50 [1]: > 1000 nM

COc1ccc(-c2cnc3[nH]c(=O)n(-c4ccccc4)c3n2)cc1OC [Example 106, 6-(3,4-dimethoxyphenyl)-1-phenyl-1H-imidazo[4,5-b]pyrazin-2(3H)-one]
IC50: 100 to 1000 nM

COc1cc(-c2cnc3c(c2)C(Cc2ccccc2)(Cc2ccccc2)C(=O)N3)cc(OC)c1OC [Example 139, 3,3-dibenzyl-5-(3,4,5-trimethoxy-phenyl)-1,3-dihydro-pyrrolo[2,3-b]pyridin-2-one]
IC50: 100 to 1000 nM

O=c1[nH]c2ncc(-c3ccc4c(c3)OCCO4)nc2n1-c1ccc2[nH]ccc2c1 [Example 63, 6-(2,3-dihydrobenzo[b][1,4]dioxin-6-yl)-1-(1H-indol-5-yl)-1H-imidazo[4,5-b]pyrazin-2(3H)-one]
IC50: 100 to 1000 nM

Cn1ccc2cc(-n3c(=O)[nH]c4ncc(-c5ccc(O)cc5)nc43)ccc21 [Example 42, 6-(4-hydroxyphenyl)-1-(1-methyl-1H-indol-5-yl)-1H-imidazo[4,5-b]pyrazin-2(3H)-one]
IC50 [1]: > 1000 nM

CN1CCN(Cc2ccc(-c3c[nH]c4ncc(-c5ccc6[nH]ccc6c5)cc34)cc2)CC1 [Example 163, 5-(1H-indol-5-yl)-3-[4-(4-methyl-piperazin-1-ylmethyl)-phenyl]-1H-pyrrolo[2,3-b]pyridine]
IC50 [1]: > 1000 nM
